# Assay results published in patent US11180499B2, “Phosphodiesterase inhibitors” (BOARD OF REGENTS OF THE UNIVERSITY OF NEBRASKA, priority 2018, dated 2021).
# Legend:
# WT mice = assay: Locomotor analysis (cocaine-induced hyperlocomotion, open field); assay type: in vivo, mouse; conditions: for Locomotor activity of compound alone: Compound 8 + saline
# Experimental: Locomotor analysis: WT mice (both gender, n=6-8) were divided into four groups receiving various treatments: (1) vehicle+saline; (2) vehicle+cocaine; (3) Compound 8+saline; and (4) Compound 8+cocaine. Cocaine was administered at 20 mg/kg (i.p.) and Compound 8 was used at two different doses 5 or 10 mg/kg (i.p.). Compound 8 was firstly injected into the mice and 30 min later followed with cocaine administration. To investigate the effects of Compound 8 on acute locomotor response, immediately following cocaine injection, mice were put into the open field apparatus (Truescan, Coulbourn instrument) to detect locomotor activity for 45 min. The TruScan photobeam activity system consists of a clear arena with infrared sensors located on a ring 3 cm above floor level. There are 16 beams spaced 1 inch apart on the sensor ring that are used to detect movements by mice. […] To investigate the effects of Compound 8 on locomotor sensitization, mice were repeatedly injected with Compound 8 and cocaine for 7 consecutive days and the locomotor responses were recorded every other day.
# PDE4B1 = target: T1, PDE4B1 (Homo sapiens, UniProt Q07343); assay: Cell-based PDE4B assay (HEK293, PDE4B1 vector, CRE luciferase reporter, forskolin); conditions: versus apremilast
# T1 construct: expressed in transfected cells; host or cells: HEK293
# T1 sequence (Q07343 whole entry): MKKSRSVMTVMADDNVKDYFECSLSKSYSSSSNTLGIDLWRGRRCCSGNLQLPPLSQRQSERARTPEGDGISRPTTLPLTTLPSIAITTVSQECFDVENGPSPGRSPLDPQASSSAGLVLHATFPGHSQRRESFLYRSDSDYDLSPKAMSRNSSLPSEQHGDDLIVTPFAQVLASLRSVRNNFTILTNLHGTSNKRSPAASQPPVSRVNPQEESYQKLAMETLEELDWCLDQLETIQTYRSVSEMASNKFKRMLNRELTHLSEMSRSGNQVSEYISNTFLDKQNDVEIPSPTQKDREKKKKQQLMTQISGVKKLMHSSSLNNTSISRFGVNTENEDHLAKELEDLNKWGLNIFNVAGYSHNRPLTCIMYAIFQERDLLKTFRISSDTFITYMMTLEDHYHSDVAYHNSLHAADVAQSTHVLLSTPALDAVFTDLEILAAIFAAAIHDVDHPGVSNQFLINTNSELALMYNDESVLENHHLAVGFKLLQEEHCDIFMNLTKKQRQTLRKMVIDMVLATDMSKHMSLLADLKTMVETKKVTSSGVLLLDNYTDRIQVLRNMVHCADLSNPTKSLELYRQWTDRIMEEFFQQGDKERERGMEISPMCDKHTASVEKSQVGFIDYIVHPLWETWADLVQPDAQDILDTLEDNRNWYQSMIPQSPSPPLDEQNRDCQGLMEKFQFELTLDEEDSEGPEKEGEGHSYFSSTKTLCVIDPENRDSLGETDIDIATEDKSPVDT
# Experimental: Cells were incubated at 37° C. and 5% CO2 overnight. […] Cell based assays were performed in triplicate at each concentration.
# [1] = system: cocaine self-administered mice; assay: Cocaine self-administration (seeking and taking behavior); assay type: in vivo, mouse; conditions: i.p., 30 min before 2 h FR1 session
# Experimental: (a) Surgery procedure: WT mice (10-12 weeks, both genders) were implanted with permanently indwelling catheters (Plastics one) into the right jugular vein under a combination of ketamine hydrochloride ([…], i. p.) and xylazine ([…], i.p.) anesthesia. The catheter is tied to the vein with surgical silk and is passed subcutaneously to the back of the mouse where the catheter is affixed to a small plastic pedestal (26 G, Plastics One Company). After the surgery, the catheters were flushed daily with heparin (30 IU/mi) to avoid clotting. Mice were allowed at least 7 days of recovery in their home before the start of the experiments.
# (b) The establishment of cocaine self-administered mice: Mice were individually put into sound-mitigation cubicles (Coulbourne Instrument) for the training of self-administered cocaine (1.0 mg/kg/infusion). […] A timeout period of 15 seconds followed each drug injection. All responses were recorded automatically using a computer interface and Graphic State Notation 4 software (Coulbourne Instrument). Mice were trained to self-administer cocaine during one daily session under a fixed ratio 1 (FR1) schedule. […]
# (c) The effects of Compound 8 on cocaine-mediated seeking and taking behavior. […] The numbers of active nose-poke and cocaine infusions were recorded. […]
# PDE4B = target: T2, PDE4B (Homo sapiens, UniProt Q07343); assay: In vitro PDE4 inhibition study, PDE4B (BPS Bioscience); assay type: binding
# T2 construct: purchased BPS Bioscience, San Diego
# T2 sequence (Q07343 whole entry): as above
# Experimental: (§1) The IC50 values of Compound 8 on PDE4 isoforms were determined by BPS Bioscience, San Diego. In brief, coat proteins (PDE4 isoforms) were added into the plate in a volume of 50 μl (2-5 ng/μl) at 4° C. overnight. The next day, Compound 8 was added to the coated plate with varying concentrations followed by addition of the corresponding biotinylated binding partner. The reaction was incubated for 2 hours at room temperature. Binding assays were performed in duplicate at each concentration and the plates were read by using Synergy 2 BioTek plate reader. The luminescence data were analyzed using the Graphpad Prism. […] Data for a reference compounds or antibodies are included as a control for inhibition. “ND” indicates the compound was not tested.
# PDE4D = target: T3, PDE4D (Homo sapiens, UniProt Q08499); assay: In vitro PDE4 inhibition study, PDE4D (BPS Bioscience); assay type: binding; conditions: values in parentheses
# T3 construct: purchased BPS Bioscience, San Diego
# T3 sequence (Q08499 whole entry): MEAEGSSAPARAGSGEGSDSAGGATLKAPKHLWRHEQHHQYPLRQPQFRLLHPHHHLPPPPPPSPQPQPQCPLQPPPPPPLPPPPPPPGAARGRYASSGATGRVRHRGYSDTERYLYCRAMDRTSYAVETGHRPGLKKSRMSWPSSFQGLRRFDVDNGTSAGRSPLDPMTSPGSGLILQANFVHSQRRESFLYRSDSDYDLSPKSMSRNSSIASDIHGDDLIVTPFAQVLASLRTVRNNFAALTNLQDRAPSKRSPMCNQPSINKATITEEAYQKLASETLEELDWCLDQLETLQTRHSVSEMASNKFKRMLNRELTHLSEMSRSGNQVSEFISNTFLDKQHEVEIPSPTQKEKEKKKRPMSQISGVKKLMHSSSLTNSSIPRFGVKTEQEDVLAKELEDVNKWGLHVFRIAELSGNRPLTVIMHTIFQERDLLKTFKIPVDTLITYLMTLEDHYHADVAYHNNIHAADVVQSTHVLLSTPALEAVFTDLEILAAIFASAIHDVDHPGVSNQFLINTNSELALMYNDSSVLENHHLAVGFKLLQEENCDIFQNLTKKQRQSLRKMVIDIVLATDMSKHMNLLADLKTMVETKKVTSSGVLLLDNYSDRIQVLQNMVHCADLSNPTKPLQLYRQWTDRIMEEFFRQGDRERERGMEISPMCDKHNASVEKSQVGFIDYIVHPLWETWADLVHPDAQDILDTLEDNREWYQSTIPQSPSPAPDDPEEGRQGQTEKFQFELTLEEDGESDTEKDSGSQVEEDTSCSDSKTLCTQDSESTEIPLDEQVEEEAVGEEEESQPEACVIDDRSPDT
# Experimental: as §1
Structure (SMILES),EC50 for PDE4B inhibition relative to apremilast (PDE4B1),IC50 (PDE4B),inhibition at 10 µM (PDE4D),"inhibition at 10 µM (PDE4B; 10 μM, values in parentheses)",Cocaine-induced hyperlocomotion (WT mice; 5 or 10 mg/kg i.p. 30 min before cocaine 20 mg/kg i.p.),Locomotor activity of compound alone (WT mice),Locomotor activity of compound alone (WT mice; listed as compound 8),"Cocaine-mediated seeking and taking behavior (active nose-pokes, cocaine infusions) [1]"
"O=C(c1cc2cccnc2n1-c1ccc(Cl)c(Cl)c1)N1CC(F)(F)C1 [Compound 8, (1-(3,4-dichlorophenyl)-1H-pyrrolo[2,3-b]pyridin-2-yl)(3,3-difluoroazetidin-1-yl)methanone]",ten-fold lower EC50,0.14 µM,–,–,inhibited the cocaine induce hyperlocomotion,without any increase alone,without any increase by itself,significantly decreased
"O=C(NC1CCC1)c1cc2cccnc2n1-c1ccc(Cl)c(Cl)c1 [Compound 2, N-cyclobutyl-1-(3,4-dichlorophenyl)-1H-pyrrolo[2,3-b]pyridine-2-carboxamide]",–,1.1 µM,24%,–,–,–,–,–

# The next lines start with results.
EC50 for PDE4B inhibition relative to apremilast (PDE4B1),IC50 (PDE4B),inhibition at 10 µM (PDE4D),"inhibition at 10 µM (PDE4B; 10 μM, values in parentheses)",Structure (SMILES),Cocaine-induced hyperlocomotion (WT mice; 5 or 10 mg/kg i.p. 30 min before cocaine 20 mg/kg i.p.),Locomotor activity of compound alone (WT mice),Locomotor activity of compound alone (WT mice; listed as compound 8),"Cocaine-mediated seeking and taking behavior (active nose-pokes, cocaine infusions) [1]"
–,0.97 µM,24%,–,"O=C(NC1CC1)c1cc2cccnc2n1-c1ccc(Cl)c(F)c1 [Compound 33, 1-(4-chloro-3-fluorophenyl)-N-cyclopropyl-1H-pyrrolo[2,3-b]pyridine-2-carboxamide]",–,–,–,–
–,0.91 µM,60%,–,"Cc1ccc(-n2c(C(=O)N3CC(F)C3)cc3cccnc32)cc1Cl [Compound 20, (1-(3-chloro-4-methylphenyl)-1H-pyrrolo[2,3-b]pyridin-2-yl)(3-fluoroazetidin-1-yl) methanone]",–,–,–,–
–,–,29%,50%,"O=C(c1cc2cccnc2n1-c1ccc(Cl)c(Cl)c1)N1CCC2(CCC2)CC1 [Compound 12, (1-(3,4-dichlorophenyl)-1H-pyrrolo[2,3-b]pyridin-2-yl)(7-azaspiro[3.5]nonan-7-yl) methanone]",–,–,–,–
